Results as given in patent publication US11013687B1, “Preventive and therapeutic treatment for COVID 19 and any other disease caused by SARS CoV 2” (priority 2020, dated 2021).

Legend:
SARS-CoV-2 = format: cell-based
[1] = used in much larger amounts as food additive and sweetener than for nasal delivery; cited from earlier work
[2] = cited from earlier work

Compound	capable of inhibiting SARS CoV 2 in vitro (in words) (SARS-CoV-2; xylitol alone)	safety for humans [1]	Log reduction of TCID50/mL after 48 hs. (mean of three replicates) (SARS-CoV-2; 6 μg/mL iota carrageenan, Vero E6, treated pre- and post-infection, 48 h, vs virus only, LOD in next column = titre at limit of detection)	concentration capable of inhibiting SARS CoV 2 in vitro (SARS-CoV-2; concentration of iota Carrageenan, alone or in combination with xylitol)	time iota Carrageenan stays in the nasal mucosa ([2]; clinical trials with a formulation containing xylometazoline and iota Carrageenan)	residence time ([2]; nasal, estimation basis for dosing each 4 hours)
OC[C@@H](O)[C@H](O)[C@@H](O)CO [xylitol, Xylitol]	capable of inhibiting SARS CoV 2 in vitro	safe for humans				
iota Carrageenan		safe for humans	significantly reducing viral titers	not less than 6 μg/mL	about 4 hrs	approximately 4 hour
